Laboratory results taken from patent publication US7662864B2, “Solution polymerization processes to prepare a polymer that degrades to release a physiologically active agent” (Rutgers, The State University of New Jersey, priority 2003, dated 2010).
Where two headings read alike, the source gives them in different places.

Columns and labels:
[1] = system: chronically-inflamed tissue; details: cited from earlier work
[2] = cited from earlier work; for Plasma Levels (Anti-Inflammatory Effectiveness): Clinical Use
[3] = cited from earlier work
[4] = Plasma diflunisal in rats after subcutaneous polydiflunisal microspheres; format: in vivo; details: single oral dose
Text: Processes for making nanoparticle formulations are also known in the art, and need not be fully described in this patent. The surface eroding property of polymers such as polydiflunisal makes for solid, non-porous particles, e.g. nano- and micro-spheres, useful for sustained drug delivery, and their release duration may be controlled by varying particle diameter, e.g. larger microparticles biodegrade more slowly than smaller ones. Nano- and microparticles for pharmaceutical formulations may be designed to deliver an agent(s) or compound(s) incorporated into the polymer backbone and optionally an agent(s) blended, appended to, or dispersed in the polymer. […] Microparticle formulations of about 1, 2, 5, 7.5, 10, 25, 50 to about 10, 15, 30, 50, 75, 100, 250 μm are suitable for use in a pharmaceutical, veterinary or other type of formulations. Similarly, nanoparticle formulations may be administered for various applications, having a particle size about 1, 2, 5, 10 to about 15, 20, 30, 50, 100, 250, 500 nm, or various ranges between any two of these values. […] While the injection of a drug or biological agent carried by a polymer of the invention, e.g. a polyNSAID, may be expected to generate significant drug, e.g. NSAID, concentrations in tissues near the injection site, their systemic levels in most cases will remain less than about […], which are far below therapeutic levels. […]

Rat = details: in vivo; cited from earlier work

CN1CC[C@]23c4c5ccc(O)c4O[C@H]2[C@@H](O)C=C[C@H]3[C@H]1C5 [morphine]
pain relief ([1]; 1 mg injected into chronically-inflamed gum tissue): profound pain relief
pain relief ([1]; 3 mg intra-articular injection in RA patients): pain relief similar to that of 4 mg dexamethasone

O=C(O)c1ccccc1O [Salicylic Acid]
Plasma Levels (Anti-Inflammatory Effectiveness) [2]: 150 to 300 µg/mL
Water Solubility [3]: High

O=C(O)c1cc(-c2ccc(F)cc2F)ccc1O [Diflunisal, 5-(2,4-difluorophenyl)-salicylic acid]
course of drug level [4]: declined rapidly
Plasma Levels (Anti-Inflammatory Effectiveness) [2]: 50 to 190 µg/mL
No. Metabolites ([2]; in vivo): 2
Plasma half-life ([2]; in vivo): 8 to 12 h
Where Metabolized ([2]; in vivo): Liver, Intestine
Water Solubility [3]: Very Low

O=C(O)CCCCCCCCC(=O)O [Sebacic Acid]
Rat Oral LD50 (Rat): 14,470 mg/kg
